# Results from patent US20120269725A1, “TARGETED RADIOLABELED COMPOUNDS AND THEIR USE FOR THE TREATMENT AND DIAGNOSIS OF CANCER” (priority 2009, published 2012).
# What was measured:
# [1] = tested on: U-87 human glioblastoma cells; assay: Concentration-dependent uptake by U-87 cells; assay type: cell-based; details: 40 h exposure, 96-well plates
# Experimental: U-87 cells were plated in 96-well plates and allowed to attach for ˜48 hours. The used medium was replaced with 6b-containing medium and the cells were grown in the presence of radioactivity for 40 h. The radioactive media was removed after 40 h of exposure. Aliquots (0.05 mL) of the radioactive medium were counted in a gamma counter. Cell monolayers were washed with PBS, PBS-methanol (2 min), and fixed in methanol (10 min). Fixed cells were allowed to dry and were stained with 0.25% crystal violet (10 min). To each well 0.1 mL ethanol was added (2 h) followed by 0.1 mL 3.5 mM SDS in water. OD at 560 nm was read. Solubilized cells were transferred into gamma counter tubes to determine their radioactive content. The plate was divided into individual wells and these were also added to the gamma counter tubes. FIG. 27 illustrates the concentration-dependent uptake.
# [2] = tested on: U-87 human glioblastoma cells; assay: DNA uptake and subcellular distribution of radioactivity in U-87 cells; assay type: cell-based
# Experimental: U-87 cells were plated in T75 flasks and allowed to attach for 24 h. Compounds 6b-fast and 6b slow were added to cells at 1 μCi/mL (37 kBq/mL) and 5 μCi/mL (185 kBq/mL). Cells were incubated with radioactive compounds from 24 h to 120 h. The radioactive medium was removed. Cells were washed twice with fresh, nonradioactive medium. Cells were trypsinized and their numbers and radioactive content determined. A similar study was also conducted in 96- and 24-well formats, which allowed more rapid analyses of several concentrations of 6b. Harvested cells were processed using NE-PER nuclear and cytoplasmic extraction reagents (Thermo Fisher Scientific, Rockford, Ill.). […] U-87 cells plated in T75 flasks and allowed to grow for 24 h. Cells were treated with […] 6b fast and 6b slow for 40 h at which time the radioactive medium was removed and replaced with fresh media. Cells were grown in fresh medium for additional 24 h and 72 h. Cells were trypsinized and DNA was extracted using the Qiagen method (Qiagen Genomic-tip 20/G; Qiagen, Valencia, Calif.).
# [3] = tested on: U-87 human glioblastoma cells; assay: Cell survival of U-87 human glioblastoma cells after treatment; assay type: cell-based; details: 24 h exposure, concentration-dependent survival (FIG. 24)
# Experimental: U-87 MG cell line is an epithelial cell line derived from a grade IV glioblastoma resected from the brain of a patient. U-87 cells were plated in four flasks for each isomer and allowed to attach for 24 h. The compounds 6b fast and 6b slow were added to U-87 cells at […] (37 kBq/mL). Cells were incubated with the radioactive compounds for 24 h and the radioactive medium was removed. Cells were washed twice with fresh, nonradioactive medium and trypsinized. After appropriate dilutions in full growth medium, cells were re-plated in fresh medium (n=4 per compound). After 96 hours in culture, cells were harvested and their numbers counted using a Cellometer® disposable cell counting chamber (Nexcelom Bioscience, Lawrence, Mass.). Four flasks used as controls were sham-treated with a volume of PBS used to dissolve radioactive compounds. The control flasks were processed as described for the radioactive compound-treated cells. […] The surviving fraction is calculated as the ratio of cell number recovered from flasks treated with radioactive compounds to the cell number recovered from the control flasks. Averages and standard deviations are shown. The cell survival was also measured in a 96-well and 6-well formats.
# U-87 cells were plated in 6-well plates from suspension. The compounds 6b fast and 6b slow were added with media on day 0. […] The OD was read at 560 nm. […]
# [4] = tested on: early stage OVCAR-3 tumors; assay: Dose-response therapy in early stage OVCAR-3 tumors; assay type: in vivo, athymic NCr-nu/nu mice
# Experimental: Female athymic NCr-nu/nu mice were received from NCI-Frederick (MD, USA) and were allowed to acclimate in Applicants' facilities until the age of 8 weeks. After this period of acclimation, 2.5×10^8 OVCAR-3 cells were implanted into 36 mice. Four days later, each mouse received SQ transponders (micro-identification chips) and mice were divided into three groups at random: control mice receiving sham IP injections of 0.6 mL vehicle (n=12); mice in the high dose group were treated with one IP dose of 0.7 mCi (26 MBq) 8b slow in 0.6 mL vehicle (n=12); and mice the low dose group were treated with one IP dose of 0.29 mCi (10.7 MBq) 8b slow in 0.6 mL vehicle (n=12).
# Five weeks after treatment, all mice were sacrificed and full necropsy was performed. A single dose of 8b slow given at the early stages of the disease reduces the tumor burden by […]. The response of solid tumors seems better than the cells in ascites, […] in the weight of the solid tumor deposits (FIG. 17). The uptake and retention of radioactivity was measured in several tissues and in tumor. The radioactivity levels in blood are ˜30 times lower than in the tumor cells in ascites and ˜10 times lower than in the solid tumors.
# [5] = tested on: advanced OVCAR-3 tumors; assay: Therapy with fractionated doses in advanced OVCAR-3 tumors; assay type: in vivo, athymic NCr-nu/nu mice; details: IP fractionated doses
# Experimental: Female athymic NCr-nu/nu mice were received from NCI-Frederic (MD, USA). Identification transponders were implanted SQ in mice acclimated for one week. When mice reached the age of 8-weeks, all mice received IP implant of 5.6×10^8 OVCAR-3 cells/mouse in 0.5 mL media without serum. This cancer cell load is double the size of implant described in Example 6 and allows for a rapid development of the advanced stages of the tumor. One weeks later mice were separated into […] via a lottery as follows: mice in the control group were left untreated; mice the vehicle group received 0.3 mL vehicle (PBS containing 0.5% albumin and 5% DMSO); the remaining mice in groups ×1, ×2, and ×3 received an IP injection of 8b-slow in 0.3 mL vehicle; two weeks later mice in groups ×2 and ×3 received an IP injection of 8b-slow in 0.3 mL vehicle; and four weeks after the first dose mice in group ×3 received an IP injection of 8b-slow in 0.3 mL vehicle. Using the same schedule, mice in the vehicle group were given IP injections of 0.3 mL vehicle. The average total administered doses were as follows: group ×1: 0.5 mCi […]; group ×2: 1 mCi (37 MBq), and group ×3: 1.5 mCi (55.5 MBq). All mice were killed six weeks after the administration of the first dose. […] The data analyses confirmed that the observed differences are statistically significant. […]
# [6] = tested on: subcutaneous LS174T tumors (human colorectal adenocarcinoma); assay: Biodistribution, clearance and planar imaging in athymic mice bearing subcutaneous LS174T xenografts; assay type: in vivo, athymic NCr-nu/nu mice; details: IV administration
# Experimental: The in vivo properties and pharmacology of several compounds of the present invention were initially tested in athymic mice bearing subcutaneous LS174T tumors (human colorectal adenocarcinoma), which have several desirable properties such as rapid growth when implanted subcutaneously (SQ), good vascularization and the availability of considerable historical data for the parent compound IUdR. The clearance rates from blood, tumor, and associated organs were analyzed to determine the structure-pharmacokinetics relationship. The first compounds studied were 6b-fast and 6b-slow. Four-to-six-weeks old female athymic NCr-nu/nu mice (NCI-Frederic, Md., USA) were allowed to acclimate in Applicants' facility after delivery for no less than 5 days. All protocols involving animals were approved by the University of Nebraska Institutional Animal Care and Use Committee. Mice were housed in microisolator cages with free access to sterilized standard rodent diet and water. LS174T cells in 0.1 mL of serum-free medium were implanted SQ at 5×10^6 cells/mouse. One week later identification transponders were implanted, also SQ. Body weights and tumor sizes were monitored twice weekly, and approximately 10 days after the cell implant, mice were randomized for biodistribution studies.
# Each of the two isomers, 6b-fast and 6b-slow, was tested independently in separate groups of mice. The comparison to the parent compound, IUdR, was made by co-injecting ^131IUdR with a particular ^125I-labeled diastereomer. Compounds were administered intravenously (IV) via a tail vein.
# Biodistribution was conducted at 1 h, 4 h, 24 and 48 h after the administration of radiolabeled compounds (n=6 per time point). The injection doses contained approximately 1 μCi (37 kBq) ^131IUdR and 5 μCi (185 kBq) ^125I-labeled 6b-fast or 6b-slow dissolved in 0.2 mL phosphate buffered saline containing 0.1% bovine serum albumin, pH 7.2 (PBS). All syringes were weighted after loading with the compound solution and immediately after the injection to determine the weight of the injected dose. Triplicate standards of the injected dose were prepared in PBS and counted in a gamma counter just before the beginning of the experiment. The radioactive content of these standards was also determined alongside all tissues after the necropsy to correct the tissue uptake for the decay of the radioisotope. Blood, liver, spleen, heart, lungs, kidneys, brain, tumor and tail were collected during necropsy. Tissues were rinsed in ice-cold saline, patted dry and weighed. The tail was collected to validate the quality of the IV injections.
# FIG. 7 presents whole body images for a typical time course distribution (24 h, 48 h, and 72 h) of 6b administered as a diastereomeric mixture in LS174T-bearing athymic mice. The images were acquired 1, 2, and 3 days after the administration of the compound. […] It is also apparent that based on pharmacokinetics, the use of these compounds can be tailored to a specific malignancy and its anatomical location.
# [7] = five weeks after single IP dose
# [8] = single IP dose, five weeks after treatment
Compound,uptake by U-87 cells compared to 6b fast [1],"cellular and nuclear uptake, slow versus fast isomer [2]","cytotoxicity to U-87 cells, slow versus fast isomer [3]","liver uptake [4, 7] [% ID/g]","radioactivity level in blood, times lower than in the solid tumors [4, 7] [times]","radioactivity level in blood, times lower than in the tumor cells in ascites [4, 7] [times]",adverse effects by hemoglobin and hematocrit levels ([4]; single IP dose 0.29 or 0.7 mCi),"reduction in the weight of the solid tumor deposits [4, 8] [%]","reduction of tumor burden [4, 8] [%]","relationship between tumor size and total administered doses ([5]; total 0.5, 1, 1.5 mCi, six weeks after first dose)",hematological adverse effects (hemoglobin and hematocrit) ([5]; total 0.5-1.5 mCi),clearance from blood and normal tissues [6]
"O=c1[nH]c(=O)n([C@H]2C[C@H](O)[C@@H](COP3(=O)OCc4ccccc4O3)O2)cc1[125I] (stereo partly drawn) [6b slow, 5-[^125I]-Iodo-5′-O-cycloSaligenyl-2′-deoxyuridine Monophosphate]",almost a two-fold greater uptake,greater overall cellular and nuclear uptake when compared to 6b fast,more cytotoxic to U-87 cells compared to the 6b fast isomer,–,–,–,–,–,–,–,–,–
"CC(C)(C)c1cc(C(C)(C)C)c2c(c1F)COP(=O)(OC[C@H]1O[C@@H](n3cc([125I])c(=O)[nH]c3=O)C[C@@H]1O)O2 (stereo partly drawn) [8b slow, 5-[^125I]-Iodo-5′-O-[cyclo-3,5-di-(tert-butyl)-6-fluoroSaligenyl]-2′-deoxyuridine Monophosphate]",–,–,–,< 0.003,~10,~30,not causing noticeable adverse effects,> 300,> 230,unambiguous dose-response relationship,do not produce any significant hematological adverse effects,rapid clearance from blood and normal tissues
